Where “and” joins values, the source holds several entries; their conditions need not be identical. Identical values can stand only once.

This test relates to WR vaccinia virus-infected 143B cell cultures. It counts as in vivo, mice.

On to `CC(C)Cn1cnc2c(N)nc3ccccc3c21` [Imiquimod], for which the “% Inhibition (plaque inhibition)” value was 13% and 22.6%.

The values are drawn from US20110091484A1, “Compositions and methods for preventing or treating a viral infection” (priority 2005, published 2011).
